In US8993765B2, “Tetrahydro-azacarboline MCH-1 antagonists, methods of making, and uses thereof” (Albany Molecular Research, Inc., priority 2010, dated 2015):
Where a name gives a salt, the structure may show the parent alone. Read-outs that look alike come from different tables or passages of the source.

How the values were obtained:
human MCH-1 receptor = human MCH-1 receptor (Homo sapiens (Human), UniProt Q99705); assay: Binding Assay for Human Melanin-Concentrating Hormone (MCH-1) Receptor; settings: membranes of CHO-K1 cells expressing human MCH-1 receptor; for Ki: radioligand displacement, Ki by Cheng Prusoff equation, read-out: MCH1 Ki
human MCH-1 receptor, sequence (Q99705 whole entry): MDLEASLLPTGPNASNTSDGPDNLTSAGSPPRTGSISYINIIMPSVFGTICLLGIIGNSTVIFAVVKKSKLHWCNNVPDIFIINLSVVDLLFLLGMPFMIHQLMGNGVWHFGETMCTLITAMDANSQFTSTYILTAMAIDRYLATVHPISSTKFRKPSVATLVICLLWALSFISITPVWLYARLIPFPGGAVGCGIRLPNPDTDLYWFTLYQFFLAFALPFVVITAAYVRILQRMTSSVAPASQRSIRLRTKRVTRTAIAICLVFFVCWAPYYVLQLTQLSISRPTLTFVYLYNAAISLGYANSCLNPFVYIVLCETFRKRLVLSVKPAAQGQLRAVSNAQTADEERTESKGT
Description: Binding Assay for Human Melanin-Concentrating Hormone (MCH-1) Receptor
Evaluation of the affinity of compounds for the human MCH-1 receptor was accomplished using 4-(3,4,5-tritritiumbenzyloxy)-1-(1-(2-(pyrrolidin-1-yl)ethyl)-1H-indazol-5-yl)pyridin-2(1H)-one and membranes prepared from stable CHO-K1 cells expressing the human MCH-1 receptor obtained from Euroscreen (Batch 1138). Cell membrane homogenates (8.92 μg protein) were incubated for 60 min at 25° C. with […] of the [^3H]-labeled compound in the absence or presence of the test compound in 50 mM Tris-HCl buffer, pH 7.4. Nonspecific binding was determined in the presence of 50 μM 1-(5-(4-cyanophenyl)bicyclo[3.1.0]hexan-2-yl)-3-(4-fluoro-3-(trifluoromethyl)phenyl)-1-(3-(4-methylpiperazin-1-yl)propyl)urea. Following incubation, the samples were filtered rapidly under vacuum through Skatron 11731 filters, pre-soaked in 0.5% polyethylenimine, and washed with ice-cold 50 mM Tris-HCl buffer, pH 7.4, (wash setting 9,9,0) using a Skatron cell harvester. The filters were counted for radioactivity in a liquid scintillation counter (Tri-Carb 2100TR, Packard) using a scintillation cocktail (Ultima Gold MV, Perkin Elmer).
The results are expressed as a percent inhibition of the control radioligand specific binding. The IC50 value (concentration causing a half-maximal inhibition of control specific binding) and Hill coefficient (nH) were determined by non-linear regression analysis of the competition curve using Hill equation curve fitting. The inhibition constant (Ki) was calculated from the Cheng Prusoff equation: (Ki=IC50/(1+(L/KD)), where L=concentration of radioligand in the assay, and KD=affinity of the radioligand for the receptor.

Row | SMILES | Ki (human MCH-1 receptor) | other results
1 | Cl.Cn1c2c(c3ccc(-n4ccc(OCc5ccc(F)cc5F)cc4=O)nc31)CNCC2 [Example 16, 4-((2,4-Difluorophenyl)methoxy)-1-(9-methyl-5,7,8,9-tetrahydro-6H-pyrido[3′,4′:4,5]pyrrolo[2,3-b]pyridin-2-yl)pyridin-2(1H)-one hydrochloride] | 8.3 nM | melting point: 206 to 210 °C
2 | O=c1cc(-c2ccc(C(F)(F)F)cc2)ccn1-c1ccn2c3c(nc2c1)CCNC3 [Example 26, 1-(1,2,3,4-Tetrahydropyrido[4′,3′:4,5]imidazo[1,2-a]pyridin-7-yl)-4-(4-(trifluoromethyl)phenyl)pyridin-2(1H)-one hydrochloride] | 23 nM | 
3 | O=c1cc(-c2ccc(C(F)(F)F)cc2)ccn1-c1ccc2c(c1)nc1n2CCNC1 [Example 20, 1-(1,2,3,4-Tetrahydropyrazino[1,2-a]benzimidazol-8-yl)-4-(4-(trifluoromethyl)phenyl)pyridin-2(1H)-one hydrochloride] |  | inhibition at 1 µM (human MCH-1 receptor; @ 1 uM test compound, read-out: MCH1 percent inhibition of control radioligand specific binding): 61%
4 | Cn1c2c(c3ccc(-n4ccc(-c5ccc(C(F)(F)F)nn5)cc4=O)nc31)CNCC2 [Example 5, 1-(9-Methyl-5,7,8,9-tetrahydro-6H-pyrido[3′,4′:4,5]pyrrolo[2,3-b]pyridin-2-yl)-4-(6-(trifluoromethyl)pyridazin-3-yl)pyridin-2(1H)-one hydrochloride] | 105 nM | 
5 | CC(=O)N1CCc2c(c3ccc(-n4ccc(-c5ccc(C(F)(F)F)nc5)cc4=O)nc3n2C)C1 [Example 9, 1-(6-Acetyl-9-methyl-5,7,8,9-tetrahydro-6H-pyrido[3′,4′:4,5]pyrrolo[2,3-b]pyridin-2-yl)-4-(6-(trifluoromethyl)pyridin-3-yl)pyridin-2(1H)-one] | 78 nM | melting point: 238 to 242 °C
6 | Cn1c2c(c3ccc(-n4ccc(OCc5ccc(Cl)cc5Cl)cc4=O)nc31)CNCC2 [Example 15, 4-((2,4-Dichlorophenyl)methoxy)-1-(9-methyl-5,7,8,9-tetrahydro-6H-pyrido[3′,4′:4,5]pyrrolo[2,3-b]pyridin-2-yl)pyridin-2(1H)-one hydrochloride] | 17 nM | 
7 | Cn1c2c(c3ccc(-n4ccc(OCc5ccccc5)cc4=O)nc31)CNCC2 [Example 2, 4-(Benzyloxy)-1-(9-methyl-5,7,8,9-tetrahydro-6H-pyrido[3′,4′:4,5]pyrrolo[2,3-b]pyridin-2-yl)pyridin-2(1H)-one dihydrochloride] | 7.1 nM | 
8 | O=c1cc(OCc2ccccc2)ccn1-c1ccc2c(c1)nc1n2CCNC1 [Example 18, 4-(Benzyloxy)-1-(1,2,3,4-tetrahydropyrazino[1,2-a]benzimidazol-8-yl)pyridin-2(1H)-one hydrochloride] | 62 nM | 
9 | CC(=O)N1CCc2c(c3ccc(-n4ccc(OCc5ccccc5)cc4=O)nc3n2C)C1 [Example 11, 1-(6-Acetyl-9-methyl-5,7,8,9-tetrahydro-6H-pyrido[3′,4′:4,5]pyrrolo[2,3-b]pyridin-2-yl)-4-(benzyloxy)pyridin-2(1H)-one] | 71 nM | melting point: 206 to 208 °C
10 | CC1Cc2c(c3ccc(-n4ccc(OCc5ccccc5)cc4=O)nc3n2C)CN1.Cl (stereo not shown) [Example 13, 4-(Benzyloxy)-1-(7,9-dimethyl-5,7,8,9-tetrahydro-6H-pyrido[3′,4′:4,5]pyrrolo[2,3-b]pyridin-2-yl)pyridin-2(1H)-one hydrochloride] |  | Ki (human MCH-1 receptor; hydrochloride): 9.3 nM; melting point: 285 to 289 °C
11 | Cn1c2c(c3ccc(N4CCN(CCc5ccccc5)CC4=O)nc31)CNCC2 [Example 3, 1-(9-Methyl-5,7,8,9-tetrahydro-6H-pyrido[3′,4′:4,5]pyrrolo[2,3-b]pyridin-2-yl)-4-phenethylpiperazin-2-one dihydrochloride] | 47 nM | 
12 | CC1Cc2c(c3ccc(-n4ccc(OCc5ccccc5)cc4=O)nc3n2C)CN1 (single isomer, unassigned; (-)) [Example 17, (−)-4-(Benzyloxy)-1-(7,9-dimethyl-5,7,8,9-tetrahydro-6H-pyrido[3′,4′:4,5]pyrrolo[2,3-b]pyridin-2-yl)pyridin-2(1H)-one hydrochloride] |  | Ki (human MCH-1 receptor; hydrochloride): 9.1 nM
13 | CC1Cc2c(c3ccc(N4CCN(CCc5ccc(F)cc5)CC4=O)nc3n2C)CN1.Cl (stereo not shown) [Example 12, 1-(7,9-Dimethyl-5,7,8,9-tetrahydro-6H-pyrido[3′,4′:4,5]pyrrolo[2,3-b]pyridin-2-yl)-4-(4-fluorophenethyl)piperazin-2-one hydrochloride] | 58 nM | melting point: 252 to 256 °C
14 | O=c1cc(OCc2ccc(F)cn2)ccn1-c1ccn2c3c(nc2c1)CCNC3 [Example 23, 4-((5-Fluoropyridin-2-yl)methoxy)-1-(1,2,3,4-tetrahydropyrido[4′,3′:4,5]imidazo[1,2-a]pyridin-7-yl)pyridin-2(1H)-one hydrochloride] | 30 nM | 
15 | Cn1c2c(c3ccc(-n4ccc(OCc5ccc(F)cn5)cc4=O)nc31)CNCC2 [Example 4, 4-((5-Fluoropyridin-2-yl)methoxy)-1-(9-methyl-5,7,8,9-tetrahydro-6H-pyrido[3′,4′:4,5]pyrrolo[2,3-b]pyridin-2-yl)pyridin-2(1H)-one hydrochloride] | 15 nM | 
16 | Cn1c2c(c3ccc(-n4ccc(OCc5ccccc5)cc4=O)nc31)C(=O)NCC2 [Example 28, 4-(Benzyloxy)-1-(9-methyl-5-oxo-5,7,8,9-tetrahydro-6H-pyrido[3′,4′:4,5]pyrrolo[2,3-b]pyridin-2-yl)pyridin-2(1H)-one] | 103 nM | 
17 | CC(C)N1CCn2c(nc3cc(-n4ccc(OCc5ccccc5)cc4=O)ccc32)C1 [Example 21, 4-(Benzyloxy)-1-(2-(propan-2-yl)-1,2,3,4-tetrahydropyrazino[1,2-a]benzimidazol-8-yl)pyridin-2(1H)-one hydrochloride] | 94 nM | 
18 | O=c1cc(-c2ccc(C(F)(F)F)nc2)ccn1-c1ccn2c3c(nc2c1)CCNC3 [Example 24, 1-(1,2,3,4-Tetrahydropyrido[4′,3′:4,5]imidazo[1,2-a]pyridin-7-yl)-4-(6-(trifluoromethyl)pyridin-3-yl)pyridin-2(1H)-one hydrochloride] | 616 nM | 
19 | CC(C)N1CCc2nc3cc(-n4ccc(OCc5ccccc5)cc4=O)ccn3c2C1 [Example 27, 4-(Benzyloxy)-1-(2-(propan-2-yl)-1,2,3,4-tetrahydropyrido[4′,3′:4,5]imidazo[1,2-a]pyridin-7-yl)pyridin-2(1H)-one hydrochloride] | 19 nM | 
20 | O=c1cc(-c2ccc(C(F)(F)F)nc2)ccn1-c1ccn2c3c(nc2c1)CCNC3 (as salt: hydrochloride) [Example 24, 1-(1,2,3,4-Tetrahydropyrido[4′,3′:4,5]imidazo[1,2-a]pyridin-7-yl)-4-(6-(trifluoromethyl)pyridin-3-yl)pyridin-2(1H)-one hydrochloride] |  | melting point: 265 °C (dec.)
21 | O=c1cc(OCc2ccc(C(F)(F)F)nc2)ccn1-c1ccn2c3c(nc2c1)CCNC3 [Example 25, 1-(1,2,3,4-Tetrahydropyrido[4′,3′:4,5]imidazo[1,2-a]pyridin-7-yl)-4-((6-(trifluoromethyl)pyridin-3-yl)methoxy)pyridin-2(1H)-one hydrochloride] | 3320 nM | 
22 | Cn1c2c(c3ccc(-n4ccc(-c5ccc(C(F)(F)F)cn5)cc4=O)nc31)CNCC2 [Example 8, 1-(9-Methyl-5,7,8,9-tetrahydro-6H-pyrido[3′,4′:4,5]pyrrolo[2,3-b]pyridin-2-yl)-4-(5-(trifluoromethyl)pyridin-2-yl)pyridin-2(1H)-one hydrochloride] | 33 nM | 
23 | Cn1c2c(c3ccc(-n4ccc(OCc5ccc(C(F)(F)F)nc5)cc4=O)nc31)CNCC2 [Example 7, 1-(9-Methyl-5,7,8,9-tetrahydro-6H-pyrido[3′,4′:4,5]pyrrolo[2,3-b]pyridin-2-yl)-4-((6-(trifluoromethyl)pyridin-3-yl)methoxy)pyridin-2(1H)-one hydrochloride] | 71 nM | 
24 | CC(=O)N1Cc2c(n(C)c3nc(-n4ccc(OCc5ccccc5)cc4=O)ccc23)CC1C (single isomer, unassigned; enantiomer a) [Example 29, 1-(6-Acetyl-7,9-dimethyl-5,7,8,9-tetrahydro-6H-pyrido[3′,4′:4,5]pyrrolo[2,3-b]pyridin-2-yl)-4-(benzyloxy)pyridin-2(1H)-one (Enantiomer A)] | 81 nM | 
25 | Cn1c2c(c3ccc(-n4ccc(-c5ccc(C(F)(F)F)nc5)cc4=O)nc31)CNCC2 [Example 6, 1-(9-Methyl-5,7,8,9-tetrahydro-6H-pyrido[3′,4′:4,5]pyrrolo[2,3-b]pyridin-2-yl)-4-(6-(trifluoromethyl)pyridin-3-yl)pyridin-2(1H)-one hydrochloride] | 15 nM | 
26 | O=c1cc(OCc2ccc(C(F)(F)F)nc2)ccn1-c1ccn2c3c(nc2c1)CCNC3 (as salt: hydrochloride) [Example 25, 1-(1,2,3,4-Tetrahydropyrido[4′,3′:4,5]imidazo[1,2-a]pyridin-7-yl)-4-((6-(trifluoromethyl)pyridin-3-yl)methoxy)pyridin-2(1H)-one hydrochloride] |  | melting point: 265 °C (dec.)
